{"source": "ChEMBL document CHEMBL5465560", "about": "“Selectivity Literature for EUbOPEN Chemogenomic Library” (2024)", "key": {"[1]": {"molecular_target": "Tyrosine-protein kinase receptor UFO (Homo sapiens) (UniProt P30530)", "sequence (P30530 whole entry)": "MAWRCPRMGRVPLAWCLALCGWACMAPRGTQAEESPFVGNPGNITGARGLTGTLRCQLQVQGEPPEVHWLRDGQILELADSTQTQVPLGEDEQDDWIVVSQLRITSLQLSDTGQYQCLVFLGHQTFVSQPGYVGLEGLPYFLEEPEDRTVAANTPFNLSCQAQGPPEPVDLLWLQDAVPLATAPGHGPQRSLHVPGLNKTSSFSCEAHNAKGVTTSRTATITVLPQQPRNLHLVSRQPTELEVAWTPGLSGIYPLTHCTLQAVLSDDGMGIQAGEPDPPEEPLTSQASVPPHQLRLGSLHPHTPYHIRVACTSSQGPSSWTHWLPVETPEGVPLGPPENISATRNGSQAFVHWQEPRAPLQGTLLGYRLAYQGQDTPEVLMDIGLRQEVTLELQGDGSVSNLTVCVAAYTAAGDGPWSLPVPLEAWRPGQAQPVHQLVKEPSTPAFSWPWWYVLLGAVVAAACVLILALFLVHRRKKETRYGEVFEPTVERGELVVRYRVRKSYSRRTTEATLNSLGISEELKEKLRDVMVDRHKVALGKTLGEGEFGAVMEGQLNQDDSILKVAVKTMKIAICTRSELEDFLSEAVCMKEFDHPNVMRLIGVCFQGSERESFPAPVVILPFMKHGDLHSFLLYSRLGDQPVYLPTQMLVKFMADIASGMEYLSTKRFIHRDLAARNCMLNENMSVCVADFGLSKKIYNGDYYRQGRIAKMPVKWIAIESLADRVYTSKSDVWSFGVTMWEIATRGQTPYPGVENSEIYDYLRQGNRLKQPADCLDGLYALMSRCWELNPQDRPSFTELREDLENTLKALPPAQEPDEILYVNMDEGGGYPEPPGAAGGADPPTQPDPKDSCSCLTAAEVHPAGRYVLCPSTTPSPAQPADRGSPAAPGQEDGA", "test": "Selectivity interaction (KinomeScan (DiscoverX)) EUB0001079a AXL", "conditions": "at 1 µM"}, "[2]": {"molecular_target": "T1, Aurora kinase A (Homo sapiens) (UniProt O14965)", "T1 sequence (whole entry)": "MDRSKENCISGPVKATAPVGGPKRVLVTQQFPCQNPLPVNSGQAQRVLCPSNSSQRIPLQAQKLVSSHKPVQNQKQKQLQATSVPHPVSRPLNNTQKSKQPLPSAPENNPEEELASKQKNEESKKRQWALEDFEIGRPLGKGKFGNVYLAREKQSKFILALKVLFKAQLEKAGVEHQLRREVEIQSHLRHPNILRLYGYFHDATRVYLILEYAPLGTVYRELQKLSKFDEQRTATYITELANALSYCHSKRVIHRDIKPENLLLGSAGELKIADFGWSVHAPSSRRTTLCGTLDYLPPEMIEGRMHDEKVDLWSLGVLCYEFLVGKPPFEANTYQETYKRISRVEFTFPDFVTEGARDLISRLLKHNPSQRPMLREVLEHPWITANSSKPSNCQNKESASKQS", "test": "Selectivity interaction (Kinase panel (KiNativ target engagement assay in Jurkat cells)) EUB0001635a STK6", "format": "cell-based", "conditions": "at 1 µM"}, "[3]": {"molecular_target": "Ribosomal protein S6 kinase alpha-3 (Homo sapiens, UniProt P51812)", "sequence (P51812 whole entry)": "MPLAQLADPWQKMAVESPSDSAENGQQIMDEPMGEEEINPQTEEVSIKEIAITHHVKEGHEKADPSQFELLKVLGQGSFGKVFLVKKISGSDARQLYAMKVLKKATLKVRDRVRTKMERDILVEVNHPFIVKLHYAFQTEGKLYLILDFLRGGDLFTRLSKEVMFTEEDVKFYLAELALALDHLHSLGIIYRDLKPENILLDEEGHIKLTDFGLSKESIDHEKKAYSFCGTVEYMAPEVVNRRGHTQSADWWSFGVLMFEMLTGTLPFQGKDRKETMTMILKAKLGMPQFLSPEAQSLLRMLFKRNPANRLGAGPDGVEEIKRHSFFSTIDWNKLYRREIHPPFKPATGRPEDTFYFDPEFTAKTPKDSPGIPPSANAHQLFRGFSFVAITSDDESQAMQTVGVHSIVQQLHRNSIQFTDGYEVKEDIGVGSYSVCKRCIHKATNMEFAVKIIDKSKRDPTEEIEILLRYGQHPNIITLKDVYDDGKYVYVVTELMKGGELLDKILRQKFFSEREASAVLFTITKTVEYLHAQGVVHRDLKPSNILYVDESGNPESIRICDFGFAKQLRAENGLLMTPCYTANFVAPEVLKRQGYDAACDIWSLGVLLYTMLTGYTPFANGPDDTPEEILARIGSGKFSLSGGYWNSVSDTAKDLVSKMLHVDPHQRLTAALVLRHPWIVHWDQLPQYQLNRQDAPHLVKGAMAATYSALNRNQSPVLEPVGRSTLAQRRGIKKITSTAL", "test": "Selectivity interaction (KinomeScan (DiscoverX)) EUB0000595a RPS6KA3", "conditions": "at 10 µM"}, "[4]": {"molecular_target": "T2, Ephrin type-A receptor 1 (Homo sapiens) (UniProt P21709)", "T2 sequence (whole entry)": "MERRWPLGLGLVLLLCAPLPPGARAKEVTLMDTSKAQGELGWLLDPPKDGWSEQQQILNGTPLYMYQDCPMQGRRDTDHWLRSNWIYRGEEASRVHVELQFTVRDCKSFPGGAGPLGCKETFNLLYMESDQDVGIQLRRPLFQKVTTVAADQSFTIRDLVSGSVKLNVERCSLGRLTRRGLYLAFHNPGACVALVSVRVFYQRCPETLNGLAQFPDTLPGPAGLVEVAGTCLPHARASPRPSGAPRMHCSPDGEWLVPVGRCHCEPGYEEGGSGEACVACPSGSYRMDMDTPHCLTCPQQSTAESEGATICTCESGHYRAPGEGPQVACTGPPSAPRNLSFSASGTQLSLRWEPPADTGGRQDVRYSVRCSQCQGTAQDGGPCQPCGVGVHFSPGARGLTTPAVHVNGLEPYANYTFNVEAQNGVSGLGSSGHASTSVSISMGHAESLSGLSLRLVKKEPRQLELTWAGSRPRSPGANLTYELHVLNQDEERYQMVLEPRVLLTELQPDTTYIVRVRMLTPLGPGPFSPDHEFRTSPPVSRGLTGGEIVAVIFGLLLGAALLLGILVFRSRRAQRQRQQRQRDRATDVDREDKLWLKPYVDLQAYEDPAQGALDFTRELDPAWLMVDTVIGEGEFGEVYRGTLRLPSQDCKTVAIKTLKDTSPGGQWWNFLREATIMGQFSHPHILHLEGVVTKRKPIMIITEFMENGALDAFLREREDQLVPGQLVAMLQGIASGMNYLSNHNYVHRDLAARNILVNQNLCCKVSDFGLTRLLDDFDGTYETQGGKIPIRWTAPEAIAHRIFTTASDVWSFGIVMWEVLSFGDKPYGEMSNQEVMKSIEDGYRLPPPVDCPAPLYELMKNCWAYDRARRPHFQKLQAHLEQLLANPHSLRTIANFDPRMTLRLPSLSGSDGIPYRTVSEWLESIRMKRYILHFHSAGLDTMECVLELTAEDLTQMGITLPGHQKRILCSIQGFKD", "test": "Selectivity interaction (KinomeScan (DiscoverX)) EUB0000045b EPHA1"}, "[5]": {"molecular_target": "Cyclin-dependent kinase 11B (Homo sapiens) (UniProt P21127)", "sequence (P21127 whole entry)": "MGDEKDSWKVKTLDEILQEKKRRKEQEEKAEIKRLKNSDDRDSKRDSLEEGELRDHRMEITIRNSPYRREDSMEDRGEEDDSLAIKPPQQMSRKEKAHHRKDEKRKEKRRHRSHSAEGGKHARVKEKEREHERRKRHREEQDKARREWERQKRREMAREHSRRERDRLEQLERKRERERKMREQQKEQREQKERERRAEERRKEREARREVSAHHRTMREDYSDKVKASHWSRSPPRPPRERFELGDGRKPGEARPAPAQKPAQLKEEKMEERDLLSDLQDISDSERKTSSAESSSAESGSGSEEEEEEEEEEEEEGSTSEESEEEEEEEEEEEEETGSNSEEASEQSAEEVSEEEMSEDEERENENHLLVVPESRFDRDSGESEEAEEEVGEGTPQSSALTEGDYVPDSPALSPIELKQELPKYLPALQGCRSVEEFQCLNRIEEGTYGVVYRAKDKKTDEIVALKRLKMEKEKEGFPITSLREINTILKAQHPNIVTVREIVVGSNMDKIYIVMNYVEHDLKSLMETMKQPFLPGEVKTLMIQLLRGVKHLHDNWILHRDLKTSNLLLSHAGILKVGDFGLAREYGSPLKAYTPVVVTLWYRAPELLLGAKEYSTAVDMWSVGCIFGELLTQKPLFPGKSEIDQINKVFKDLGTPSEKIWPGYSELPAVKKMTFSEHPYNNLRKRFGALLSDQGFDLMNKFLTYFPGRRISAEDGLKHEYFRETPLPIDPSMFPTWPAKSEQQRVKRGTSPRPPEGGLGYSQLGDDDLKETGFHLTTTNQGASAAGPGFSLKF", "test": "Selectivity interaction (KinomeScan (DiscoverX)) EUB0000607a CDK11B", "conditions": "at 10 µM"}, "[6]": {"tested_on": "PI3-kinase p110-alpha/p85-alpha (Homo sapiens), P27986+P42336 [E545K]", "test": "Selectivity interaction (Adapta Assay) EUB0001632a PIK3CA", "format": "protein-complex assay", "conditions": "at 10 µM"}, "[7]": {"molecular_target": "T3, Serine/threonine-protein kinase tousled-like 1 (Homo sapiens) (UniProt Q9UKI8)", "T3 sequence (whole entry)": "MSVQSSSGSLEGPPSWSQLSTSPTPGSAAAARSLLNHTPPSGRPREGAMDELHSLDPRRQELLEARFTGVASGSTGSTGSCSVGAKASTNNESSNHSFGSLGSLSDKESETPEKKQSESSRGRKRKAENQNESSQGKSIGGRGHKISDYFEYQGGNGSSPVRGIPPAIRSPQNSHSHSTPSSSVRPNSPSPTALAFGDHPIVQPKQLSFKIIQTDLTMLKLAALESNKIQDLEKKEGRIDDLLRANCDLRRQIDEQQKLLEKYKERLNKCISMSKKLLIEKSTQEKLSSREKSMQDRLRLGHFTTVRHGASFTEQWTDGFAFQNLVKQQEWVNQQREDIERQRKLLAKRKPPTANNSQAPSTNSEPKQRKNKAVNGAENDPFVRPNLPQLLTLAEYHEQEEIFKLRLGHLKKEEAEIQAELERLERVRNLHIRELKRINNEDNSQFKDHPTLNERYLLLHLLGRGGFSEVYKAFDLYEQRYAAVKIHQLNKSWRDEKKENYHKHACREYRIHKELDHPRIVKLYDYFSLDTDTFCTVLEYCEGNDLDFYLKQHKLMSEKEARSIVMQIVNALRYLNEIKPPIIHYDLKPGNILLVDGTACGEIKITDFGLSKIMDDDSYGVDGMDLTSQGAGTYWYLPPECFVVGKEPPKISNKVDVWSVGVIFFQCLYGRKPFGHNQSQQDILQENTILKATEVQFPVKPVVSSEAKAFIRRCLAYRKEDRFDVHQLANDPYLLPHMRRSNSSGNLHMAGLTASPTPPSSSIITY", "test": "Selectivity interaction (LanthaScreen Eu Kinase Binding Assay) EUB0001632a TLK1", "conditions": "at 10 µM"}}, "data": [{"smiles": "Nc1cnc(N2CCc3cc(S(=O)(=O)Nc4c(F)cc(Cl)cc4F)cc(N4CCCC4=O)c32)nc1", "note": "[TP-020n]", "values": [{"measurement": "% of control", "setting": "[1]", "value": 69, "unit": "%"}]}, {"smiles": "C=CC(=O)Nc1ccc(C(=O)Nc2[nH]nc3c2CN(C(=O)N[C@H](CN(C)C)c2ccccc2)C3(C)C)cc1", "values": [{"measurement": "% of engagement", "setting": "[2]; Selectivity number of off-targets 0.0, Selectivity number of targets 233.0, Source Knowledge https://www.sciencedirect.com/science/article/pii/S2451945619300674?via%3Dihub", "value": 22.4, "unit": "%"}, {"measurement": "% of engagement", "setting": "[2]", "value": 26, "unit": "%"}]}, {"smiles": "COCC(=O)NC/C=C/c1ccc2ncnc(Nc3ccc(Oc4ccc(C)nc4)c(C)c3)c2c1", "note": "[CP-724714]", "values": [{"measurement": "% of control", "setting": "[3]", "value": 92, "unit": "%"}]}, {"smiles": "C=CC(=O)Nc1cc(-n2c(=O)ccc3cnc4ccc(-c5ccc(NS(C)(=O)=O)cc5)cc4c32)ccc1C", "values": [{"measurement": "% of control", "setting": "[4]; at 1 µM", "value": 92, "unit": "%"}, {"measurement": "% of control", "setting": "[4]; at 10 µM", "value": 100, "unit": "%"}]}, {"smiles": "CNC(=O)Nc1ccc(-c2nc(N3CC4CCC(C3)O4)c3cnn(C4CCC5(CC4)OCCO5)c3n2)cc1", "values": [{"measurement": "% of control", "setting": "[5]", "value": 100, "unit": "%"}]}, {"smiles": "Cn1cc(-n2cnc3c(NCc4nc5cc(Cl)c(Cl)cc5[nH]4)nc(N4CCOCC4)nc32)cn1", "values": [{"measurement": "% of inhibition", "setting": "[6]", "value": 20, "unit": "%"}, {"measurement": "% of inhibition", "setting": "[7]", "value": 5.47, "unit": "%"}]}]}
